# Measurements taken from ChEMBL document CHEMBL1811894, “Structural and conformational analysis of proanthocyanidins from Parapiptadenia rigida and their wound-healing properties” (J Nat Prod, 2011).
# Active and inactive are the calls of the source. No cut-off for these calls is given here.
# Assays:
# NIH3T3 [1] = experiment: Wound healing activity in Swiss albino mouse 3T3 cells assessed as cell migration-associated increase in cell number at 10 uM after 12 hrs by scratch assay; format: functional, cell-based
# NIH3T3 [2] = experiment: Wound healing activity in Swiss albino mouse 3T3 cells assessed as cell migration-associated increase in cell number at 1 uM after 12 hrs by scratch assay; format: functional, cell-based
# NIH3T3 [3] = experiment: Wound healing activity in Swiss albino mouse 3T3 cells assessed as cell migration-associated increase in cell number at 20 uM after 12 hrs by scratch assay; format: functional, cell-based
# NIH3T3 [4] = experiment: Cytotoxicity against Swiss albino mouse 3T3 cells at 10 to 20 uM; format: cell-based; conditions: nih3t3, 20 µM
# Jurkat = experiment: Inhibition of TNF-alpha-induced NFkappaB activity in human Jurkat cells at 10 uM after 24 hrs by EMSA; format: cell-based
Structure (SMILES),Activity (NIH3T3 [1]),Activity (NIH3T3 [2]),Activity (NIH3T3 [3]),Activity (NIH3T3 [4]),inhibition (Jurkat)
COc1c(O)cc([C@H]2Oc3c(c(O)cc(O)c3[C@H]3c4c(O)cc(O)cc4O[C@H](c4ccc(O)c(O)c4)[C@@H]3O)C[C@@H]2O)cc1O,inactive,Active,inactive,Toxic,
COc1c(O)cc([C@H]2Oc3c(c(O)cc(O)c3[C@H]3c4c(O)cc(O)cc4O[C@H](c4cc(O)c(O)c(O)c4)[C@@H]3O)C[C@@H]2O)cc1O,inactive,Active,inactive,Toxic,Active
COc1c(O)cc([C@H]2Oc3cc(O)cc(O)c3[C@@H](c3c(O)cc(O)c4c3O[C@H](c3cc(O)c(OC)c(O)c3)[C@@H](O)C4)[C@@H]2O)cc1O,inactive,Active,inactive,Toxic,
